Results on three compounds are retold here after patent US6323204A, “Methods for using (2-imidazolin-2-ylamino) quinoxaline derivatives” (Allergan, priority 1998, dated 2001).

Test [1] is described as follows: mouse hexobarbital sleep time test (central nervous system anesthetization activity). As to conditions: i.v., with hexobarbital 75 mg/kg i.p., dose which potentiates sleep time by 15 minutes. The class given is in vivo. Here is the method: (§1) Two (2) animal models were utilized to determine the central nervous system anesthetization activity of the quinoxaline derivative produced in Example 2.
(§2) The first of these animal models is identified generally as the mouse hexobarbital sleep time test. Briefly, the compound in question (in a dosage range of between 10 and 500 micrograms/kg, i.v.) and the barbiturate hexobarbital (75 mg/kg, i.p) are coadministered to mice weighing 20 to 22 grams. […] Sleep time is assessed as the time associated with the loss of the animal's reflex to right itself when placed on its back. The ED15 is estimated from dose-response data as the effective dose which potentiates sleep time by 15 minutes. The second animal model used is identified generally as the rat activity test. Briefly, rats weighing 140 to 160 grams are placed into an environmentally isolated activity monitor five (5) minutes following administration of the compound in question (in the range of 1 to 1000 micrograms/kg, i.v.). Horizontal activity, measured in counts is determined for five (5) minutes.
(§3) The final quinoxaline derivative produced in Example 2 was tested using both of the above-noted animal models. For comparison purposes, clonidine and its hydrophilic analog, p-amino-clonidine, were also tested using these animal models.

The nature of test [2]: rat activity test (central nervous system anesthetization activity). The following applies: iv, read-out: ID50 Rat Activity. It is filed as in vivo. Here is the method:
as §1, §2, §3

For test [3] the following is noted: in words. Here is the method:
The final quinoxaline derivative produced in Example 2, that is 5-bromo-6-(2-imidazolin-2-ylamino)quinoxaline, was tested for central nervous system anesthetization activity as follows.
as §1, §2
The final quinoxaline derivative produced in Example 2 was tested using both of the above-noted animal models. […]

For test [4] the following is noted: in words; stated as known; cited from earlier work.

The structures appear in SMILES notation. Where two headings read alike, the source gives them in different places.

With `Nc1cc(Cl)c(NC2=NCCN2)c(Cl)c1` [p-Amino Clonidine], in test [1], the “ED15 Mouse Sleep-Time” value is above 0.5 mg/kg. Further, the ED50 in test [2] (rat, i.v., dose which decreases horizontal activity by 50%) is 0.302 mg/kg.

For the compound `Brc1c(NC2=NCCN2)ccc2nccnc12` [Example 2, 5-bromo-6-(2-imidazolin-2-ylamino) quinoxaline], the “central nervous system anesthetization activity compared with the hydrophilic analog of clonidine (p-amino clonidine)” value in test [3] is reported as “substantially more of such activity”. Besides, the “central nervous system anesthetization activity” value in test [3] (mouse sleep time and rat activity tests) is given as “substantial central nervous system anesthetization activity”. Moreover, in test [1], the “ED15 Mouse Sleep-Time” value came out at 0.116 mg/kg. Further, the ED50 in test [2] (Rattus norvegicus) came out at 0.077 mg/kg.

Turning to `Clc1cccc(Cl)c1N=C1NCCN1` [Clonidine], in test [1], the “ED15 Mouse Sleep-Time” value was 0.075 mg/kg. The “anesthetization activity (known)” value in test [4] is recorded as “significant anesthetization activity”. In addition, the ED50 in test [2] (Rattus norvegicus) came to 0.026 mg/kg.
